Results from ChEMBL document CHEMBL1201862, “PubChem BioAssay data set” (2004).
Structures can show the parent of a compound that is named as a salt. The source made the active and inactive calls.

What was measured:
[1] = M. tuberculosis H37Rv growth inhibitors, H37Rv strain (AID 1626); assay type: functional
Fatty acid synthase [2] = target: T1, Fatty acid synthase (Homo sapiens, UniProt P49327); test: FAS thioesterase domain inhibitors, dose response, biochemical, kinetic fluorescence intensity (AID 624326); assay type: functional;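 also: rate of fluorescence rise from hydrolysis of a fluorogenic O-methyl fluorescein ester substrate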
Fatty acid synthase [3] = target: T1, Fatty acid synthase; test: FAS thioesterase domain inhibitors, dose response, biochemical, endpoint fluorescence intensity, uHTS hits (AID 624327); assay type: functional;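 also: fluorescence from hydrolysis of an O-methyl fluorescein acyl ester substrate by the enzyme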
[4] = target: T2, Calpain-2 catalytic subunit (Sus scrofa, UniProt P43367); test: pig calpain II inhibitor potency, dose response, biochemical, fluorogenic peptide substrate (AID 1420); assay type: functional
T2 sequence (P43367 whole entry): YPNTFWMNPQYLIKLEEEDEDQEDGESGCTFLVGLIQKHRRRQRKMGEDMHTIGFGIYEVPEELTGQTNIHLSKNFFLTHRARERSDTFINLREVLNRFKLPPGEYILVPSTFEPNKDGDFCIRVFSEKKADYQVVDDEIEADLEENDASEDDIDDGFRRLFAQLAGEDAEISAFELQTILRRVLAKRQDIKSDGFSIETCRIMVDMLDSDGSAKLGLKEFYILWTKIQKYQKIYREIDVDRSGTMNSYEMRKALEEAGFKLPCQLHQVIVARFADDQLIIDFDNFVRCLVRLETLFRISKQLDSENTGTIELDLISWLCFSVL

[5] = target: T3, Short transient receptor potential channel 4 (Mus musculus, UniProt Q9QUQ5); test: mouse TRPC4 channel inhibitors, dose response, cell-based, HEK293 TRPC4/mu-opioid, Fluo-4 calcium (AID 434942); assay type: functional;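 also: potency of inhibitors blocking the TRPC4 calcium response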
T3 sequence (Q9QUQ5 whole entry): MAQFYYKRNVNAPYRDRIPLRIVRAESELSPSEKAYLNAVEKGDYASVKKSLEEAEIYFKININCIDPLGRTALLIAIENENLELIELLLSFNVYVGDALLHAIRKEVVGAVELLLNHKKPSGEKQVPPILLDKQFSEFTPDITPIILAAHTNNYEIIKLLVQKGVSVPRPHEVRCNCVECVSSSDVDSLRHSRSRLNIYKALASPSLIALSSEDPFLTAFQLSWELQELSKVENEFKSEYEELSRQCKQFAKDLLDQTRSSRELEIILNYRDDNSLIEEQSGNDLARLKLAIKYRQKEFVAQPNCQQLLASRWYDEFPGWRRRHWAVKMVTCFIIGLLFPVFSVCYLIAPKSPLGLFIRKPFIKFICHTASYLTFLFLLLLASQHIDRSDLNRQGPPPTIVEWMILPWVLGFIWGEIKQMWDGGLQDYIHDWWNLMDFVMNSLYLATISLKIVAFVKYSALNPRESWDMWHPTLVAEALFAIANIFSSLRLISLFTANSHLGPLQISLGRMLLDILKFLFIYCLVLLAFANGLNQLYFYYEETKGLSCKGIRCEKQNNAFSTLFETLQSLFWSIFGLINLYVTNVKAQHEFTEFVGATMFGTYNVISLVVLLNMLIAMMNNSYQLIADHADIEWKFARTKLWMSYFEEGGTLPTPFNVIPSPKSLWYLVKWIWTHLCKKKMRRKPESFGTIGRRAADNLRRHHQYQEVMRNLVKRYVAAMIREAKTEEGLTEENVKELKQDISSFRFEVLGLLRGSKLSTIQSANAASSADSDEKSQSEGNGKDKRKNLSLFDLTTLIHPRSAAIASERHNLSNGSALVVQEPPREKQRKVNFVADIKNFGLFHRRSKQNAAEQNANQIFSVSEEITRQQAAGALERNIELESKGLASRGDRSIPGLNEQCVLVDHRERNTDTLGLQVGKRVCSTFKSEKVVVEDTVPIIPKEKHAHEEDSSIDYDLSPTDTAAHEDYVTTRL

[6] = Luminescence Cell-Based Dose Confirmation HTS to Identify Activators of 5'UTR Stem-Loop Driven Alpha-Synuclein mRNA Translation in H4 Neuroglioblastoma Cells. [Related pubchem assays: 1829 (Project Summary), 1814 (Primary HTS)]; assay type: functional
H4 = test: Luminescence Cell-Based Dose Response HTS to Identify Activators of 5'UTR Stem-Loop Driven Prion Protein mRNA Translation in H4 Neuroglioblastoma Cells. [Related pubchem assays: 1829 (Project Summary), 1814 (Primary HTS)]; assay type: functional; conditions: Homo sapiens
[7] = Luminescence Cell-Based Dose Response HTS to Identify Activators of Luciferase Translation or Activity in H4 […] Cells. [Related pubchem assays: 1829 (Project Summary), 1814 (Primary HTS)]; assay type: functional
[8] = Luminescence Cell-Based Dose Response HTS to Identify Inhibitors of 5'UTR Stem-Loop Driven Prion Protein mRNA Translation in H4 Neuroglioblastoma Cells. [Related pubchem assays: 1827 (Project Summary), 1813 (Primary HTS)]; assay type: functional
[9] = inhibitors of firefly luciferase expression or activity, dose response, H4 neuroglioma cells, luminescence (AID 1990); assay type: functional, cell-based
Vero = test: cells; assay type: functional; conditions: Chlorocebus sabaeus
[10] = inhibitors of SNCA 5'UTR-driven reporter translation, confirmation, H4 neuroglioma cells, luminescence (AID 1988); assay type: functional, cell-based
INS1 = test: beta cell apoptosis inhibitors, cytokine rescue, dose response, luminescence, retest (AID 449756); assay type: functional, cell-based; conditions: Rattus norvegicus;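 also: cell death triggered by IL-1 beta plus TNF-alpha plus IFN-gamma mixture; protective hits raise ATP signal compared with cytokine alone wells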
[11] = inhibitors of clade B AD8 Env fusion, dose response, cell-based, cherry-pick (AID 652062); assay type: functional;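 also: luciferase signal from cell-cell fusion driven by HIV-1 clade B AD8 Env; potency is for inhibitors of fusion seen as a drop in luminescence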
[12] = target: Voltage-dependent T-type calcium channel subunit alpha-1H (Homo sapiens, UniProt O95180); assay type: functional;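 also: channel activity triggered by adding a high calcium stimulation buffer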
Sequence of Voltage-dependent T-type calcium channel subunit alpha-1H (O95180 whole entry): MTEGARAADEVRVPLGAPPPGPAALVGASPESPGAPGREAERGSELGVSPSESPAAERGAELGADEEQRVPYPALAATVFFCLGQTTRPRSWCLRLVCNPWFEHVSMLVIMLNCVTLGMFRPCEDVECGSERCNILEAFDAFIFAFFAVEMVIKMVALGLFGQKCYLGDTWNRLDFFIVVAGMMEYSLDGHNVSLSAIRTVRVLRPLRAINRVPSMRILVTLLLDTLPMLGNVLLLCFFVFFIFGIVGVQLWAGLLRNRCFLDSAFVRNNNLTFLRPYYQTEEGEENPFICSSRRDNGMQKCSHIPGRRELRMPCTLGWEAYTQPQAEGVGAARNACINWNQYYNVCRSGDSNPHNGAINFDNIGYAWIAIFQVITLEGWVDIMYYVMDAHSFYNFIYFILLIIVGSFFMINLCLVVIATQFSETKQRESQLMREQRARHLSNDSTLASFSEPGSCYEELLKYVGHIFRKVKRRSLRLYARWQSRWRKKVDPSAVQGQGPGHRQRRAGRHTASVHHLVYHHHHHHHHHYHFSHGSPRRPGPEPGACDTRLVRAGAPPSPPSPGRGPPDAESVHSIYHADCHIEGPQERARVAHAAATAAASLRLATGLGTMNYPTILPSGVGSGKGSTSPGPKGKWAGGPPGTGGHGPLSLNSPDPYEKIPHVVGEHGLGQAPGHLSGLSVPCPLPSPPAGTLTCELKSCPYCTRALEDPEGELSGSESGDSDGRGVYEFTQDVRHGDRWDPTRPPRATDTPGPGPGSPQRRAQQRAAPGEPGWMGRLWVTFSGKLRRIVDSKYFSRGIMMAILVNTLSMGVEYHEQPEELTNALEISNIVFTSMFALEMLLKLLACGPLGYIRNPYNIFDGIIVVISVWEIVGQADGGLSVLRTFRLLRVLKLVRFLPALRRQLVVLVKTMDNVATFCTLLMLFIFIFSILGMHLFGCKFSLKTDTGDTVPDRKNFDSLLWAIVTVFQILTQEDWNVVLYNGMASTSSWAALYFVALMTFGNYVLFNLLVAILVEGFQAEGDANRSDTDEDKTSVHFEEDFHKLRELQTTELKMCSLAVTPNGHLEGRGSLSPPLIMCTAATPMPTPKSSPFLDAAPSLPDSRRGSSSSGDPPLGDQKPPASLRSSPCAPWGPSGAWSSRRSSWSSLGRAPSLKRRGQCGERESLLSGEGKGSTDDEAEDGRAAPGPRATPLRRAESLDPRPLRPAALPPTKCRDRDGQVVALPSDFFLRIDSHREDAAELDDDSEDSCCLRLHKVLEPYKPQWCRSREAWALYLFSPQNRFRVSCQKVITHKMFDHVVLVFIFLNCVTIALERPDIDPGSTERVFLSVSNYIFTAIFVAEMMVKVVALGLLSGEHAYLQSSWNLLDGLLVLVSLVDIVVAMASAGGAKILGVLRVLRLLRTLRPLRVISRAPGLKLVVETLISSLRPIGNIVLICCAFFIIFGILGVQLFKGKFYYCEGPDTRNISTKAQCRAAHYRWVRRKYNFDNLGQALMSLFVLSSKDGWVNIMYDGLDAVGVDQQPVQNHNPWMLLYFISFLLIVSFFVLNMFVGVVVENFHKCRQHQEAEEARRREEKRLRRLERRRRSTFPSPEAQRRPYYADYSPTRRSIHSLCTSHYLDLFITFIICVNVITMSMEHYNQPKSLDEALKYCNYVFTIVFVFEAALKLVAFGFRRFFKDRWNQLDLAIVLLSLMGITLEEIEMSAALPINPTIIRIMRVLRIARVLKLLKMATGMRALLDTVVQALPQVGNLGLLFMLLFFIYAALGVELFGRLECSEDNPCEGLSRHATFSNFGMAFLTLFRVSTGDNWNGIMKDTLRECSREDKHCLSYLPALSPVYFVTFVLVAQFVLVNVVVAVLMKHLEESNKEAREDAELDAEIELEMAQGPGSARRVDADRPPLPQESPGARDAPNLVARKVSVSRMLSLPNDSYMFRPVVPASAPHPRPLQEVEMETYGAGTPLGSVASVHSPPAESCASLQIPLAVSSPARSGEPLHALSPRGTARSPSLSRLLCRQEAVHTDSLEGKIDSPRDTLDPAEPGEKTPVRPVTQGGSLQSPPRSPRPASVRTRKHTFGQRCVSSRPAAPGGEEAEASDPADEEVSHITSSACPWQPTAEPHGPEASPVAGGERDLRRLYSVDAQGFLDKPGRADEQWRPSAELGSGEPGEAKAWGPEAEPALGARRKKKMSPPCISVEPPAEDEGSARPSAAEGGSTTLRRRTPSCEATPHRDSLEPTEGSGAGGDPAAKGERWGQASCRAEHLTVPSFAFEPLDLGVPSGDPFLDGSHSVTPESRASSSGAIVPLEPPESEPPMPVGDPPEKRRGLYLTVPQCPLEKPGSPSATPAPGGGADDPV

Escherichia coli = test: microbe, parasite or virus in culture
[13] = target: DNA dC->dU-editing enzyme APOBEC-3G (Homo sapiens, UniProt Q9HC16); assay type: functional;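 also: Dose-response counterscreen measuring inhibition of APOBEC3G DNA deaminase activity, run while confirming APOBEC3A inhibitors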
Sequence of DNA dC->dU-editing enzyme APOBEC-3G (Q9HC16 whole entry): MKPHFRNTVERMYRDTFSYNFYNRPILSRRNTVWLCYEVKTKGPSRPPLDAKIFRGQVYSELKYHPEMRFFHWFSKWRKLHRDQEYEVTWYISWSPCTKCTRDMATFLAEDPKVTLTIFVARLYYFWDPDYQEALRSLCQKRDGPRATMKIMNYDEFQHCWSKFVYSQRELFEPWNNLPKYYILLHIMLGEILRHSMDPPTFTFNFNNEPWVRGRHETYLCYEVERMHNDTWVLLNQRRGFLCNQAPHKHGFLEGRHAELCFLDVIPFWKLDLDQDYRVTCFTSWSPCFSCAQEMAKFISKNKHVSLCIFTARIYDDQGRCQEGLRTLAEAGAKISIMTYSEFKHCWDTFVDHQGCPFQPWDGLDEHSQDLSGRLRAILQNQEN

[14] = inhibitors of intracellular T. cruzi replication, confirmation, NIH3T3 host cells, beta-gal luminescence (AID 2044); assay type: functional, cell-based;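 also: intracellular parasites grown in NIH/3T3 mouse fibroblasts as host cells; luminescent beta-galactosidase reporter signal from transgenic T. cruzi replicating inside host cells; inhibitors lower the luminescence signal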
[15] = target: DNA dC->dU-editing enzyme APOBEC-3A (Homo sapiens, UniProt P31941); test: Dose Response confirmation of small molecule APOBEC3A DNA Deaminase Inhibitors via a fluorescence-based single-stranded DNA deaminase assay. [Related pubchem assays (depositor defined):AID493011, AID493024]; assay type: functional
Sequence of DNA dC->dU-editing enzyme APOBEC-3A (P31941 whole entry): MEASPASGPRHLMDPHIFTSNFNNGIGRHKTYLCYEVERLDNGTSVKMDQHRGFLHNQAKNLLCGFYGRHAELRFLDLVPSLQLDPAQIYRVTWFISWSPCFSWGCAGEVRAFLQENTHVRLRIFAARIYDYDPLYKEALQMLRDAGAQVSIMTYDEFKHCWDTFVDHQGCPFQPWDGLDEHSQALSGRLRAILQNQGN

[16] = cytotoxicity toward NIH3T3 fibroblasts, dose response, counter-screen, cell-based, ATP luminescence, mouse fibroblasts (AID 2010); assay type: functional;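 also: cells exposed to compound for about 90 hours before reading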
[17] = target: T4, Carboxy-terminal domain RNA polymerase II polypeptide A small phosphatase 1 (Homo sapiens, UniProt Q9GZU7); test: inhibitors of CTDSP1, concentration-response testing, biochemical assay, absorbance-based, actives from ultra-high-throughput screening (AID 540297); assay type: functional
T4 sequence (Q9GZU7 whole entry): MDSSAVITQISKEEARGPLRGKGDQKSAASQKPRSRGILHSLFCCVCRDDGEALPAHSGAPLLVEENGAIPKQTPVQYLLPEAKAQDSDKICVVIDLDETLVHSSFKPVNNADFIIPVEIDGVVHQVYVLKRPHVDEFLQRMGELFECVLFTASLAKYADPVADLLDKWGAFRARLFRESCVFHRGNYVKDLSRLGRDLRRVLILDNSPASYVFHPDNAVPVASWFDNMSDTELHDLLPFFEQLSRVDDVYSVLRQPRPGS

Genome polyprotein = Genome polyprotein (dengue virus type 2, UniProt P29990); test: Dengue-2 NS5 methyltransferase inhibitors, primary screen, biochemical, confirmation dose response (AID 588689); assay type: functional
Sequence of Genome polyprotein (P29990 2492-3391 limits assumed): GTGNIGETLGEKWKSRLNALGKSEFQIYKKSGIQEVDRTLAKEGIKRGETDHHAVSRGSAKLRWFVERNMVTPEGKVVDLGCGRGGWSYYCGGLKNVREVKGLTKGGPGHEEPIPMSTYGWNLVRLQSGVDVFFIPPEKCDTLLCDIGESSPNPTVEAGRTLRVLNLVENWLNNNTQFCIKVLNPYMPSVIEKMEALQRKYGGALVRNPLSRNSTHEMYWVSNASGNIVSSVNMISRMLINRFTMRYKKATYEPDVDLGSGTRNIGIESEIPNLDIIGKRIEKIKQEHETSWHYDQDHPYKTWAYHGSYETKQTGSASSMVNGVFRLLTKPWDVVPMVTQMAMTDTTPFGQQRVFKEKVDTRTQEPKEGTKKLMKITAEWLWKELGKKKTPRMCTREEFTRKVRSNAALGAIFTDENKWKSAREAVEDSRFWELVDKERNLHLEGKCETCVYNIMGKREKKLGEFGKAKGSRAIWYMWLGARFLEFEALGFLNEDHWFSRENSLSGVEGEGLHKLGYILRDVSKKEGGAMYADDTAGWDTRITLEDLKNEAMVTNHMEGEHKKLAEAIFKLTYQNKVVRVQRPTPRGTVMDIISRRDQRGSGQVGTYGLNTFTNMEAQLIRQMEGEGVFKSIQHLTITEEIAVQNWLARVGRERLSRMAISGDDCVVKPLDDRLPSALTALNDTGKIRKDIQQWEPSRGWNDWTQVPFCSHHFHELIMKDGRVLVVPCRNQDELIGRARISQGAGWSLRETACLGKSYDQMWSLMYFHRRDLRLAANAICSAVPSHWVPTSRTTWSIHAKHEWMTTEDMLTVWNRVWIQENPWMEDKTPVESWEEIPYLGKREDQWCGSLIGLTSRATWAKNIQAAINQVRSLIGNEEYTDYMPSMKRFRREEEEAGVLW

[18] = growth suppression of PTEN-null colon cells, dose response, cell-based, HCT116 PTEN knockout (AID 1047); assay type: functional;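 also: HCT116 colon tumor cells with PTEN knocked out; cells exposed to compound for 60 hours before readout; potency for loss of cell viability measured by luminescence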
[19] = growth suppression of beta-catenin-knockout colon cells, dose response, cell-based, HCT116, human colon tumor (AID 1045); assay type: functional;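 also: HCT116 colon tumor cells with beta catenin knocked out; cells exposed to compound for 60 hours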

COc1ccc(N=C2C(=O)Nc3c(C)cccc32)cc1
IC50 [1]: > 100 µM (active)

O=[N+]([O-])c1cccc(OCCN2CCC(Cc3ccccc3)CC2)c1
IC50 (Fatty acid synthase [2]): 4.72 µM (active) | IC50 (Fatty acid synthase [3]): 5.3 µM (active)

Cn1nc(C(=O)Nc2ccc(S(=O)(=O)N3CCCCC3)cc2)c2ccccc2c1=O
IC50 [4]: > 50 µM (not active)

O=C1/C(=C/c2ccccc2Cl)SC(=S)N1CCCC(=O)N(CCO)c1ccccc1
IC50 (Fatty acid synthase [2]): 9.91 µM (active) | IC50 (Fatty acid synthase [3]): 14.2 µM (active) | EC50 [5]: 473 nM (active)

Cn1cnnc1SCc1ccc(-c2ccc(Br)cc2)o1
EC50 [6]: 20.7 µM (active) | EC50 (H4): 22.2 µM (active) | EC50 [7]: 21.2 µM (active) | IC50 [1]: > 100 µM (active)

COc1ccc(NC(C)=O)cc1NC(=O)CN1CCN(C2c3ccccc3-c3ccccc32)CC1
EC50 [8]: > 120 µM (not active) | EC50 [9]: > 120 µM (not active) | CC50 (Vero): 19.3 µM (active) | EC50 [10]: 14.7 µM (active)

CCC(C)N1C(=O)/C(=C\c2cc3c4c(c2)CCCN4CCC3)C(=O)NC1=S (stereo not given)
CC50 (Vero): > 25 µM (active)

CC(C)OCCCNc1[nH]cnc2c3ccccc3nc1-2
AC50 (INS1): 2.87 µM (active) | AC50 [11]: 5.7 µM (active)

Cc1cc(C)nc(N=C(N)Nc2ccc(S(=O)(=O)O)cc2)n1
IC50 [4]: < 0.4 µM (not active)

CCN(Cc1ccccc1)C(c1ccccn1)c1nnnn1C1CCCCC1 (stereo not given)
EC50 [12]: 3.93 µM (active)

Cc1nc(NC(=O)/C=C/c2ccccc2)sc1C(=O)N(C)C
AC50 (Escherichia coli): 43.6 µM (active)

CC[n+]1ccc(/C=C/c2c[nH]c3ccccc23)cc1
AC50 (INS1): 5.79 µM (active) | IC50 [13]: 12.3 µM (active) | EC50 [14]: 839 nM (active) | IC50 [15]: 5.16 µM (active) | EC50 [16]: > 60 µM (not active)

O=C(Nc1ccc(-c2nc3ncccc3o2)cc1)c1ccco1
AC50 (Escherichia coli): 30.5 µM (active)

O=C(NCCc1ccccc1)/C(=C\c1cccc([N+](=O)[O-])c1)NC(=O)c1ccco1
IC50 (Fatty acid synthase [2]): 4.22 µM (active) | IC50 (Fatty acid synthase [3]): 3.04 µM (active)

O=C(/C=C/c1ccco1)OCC(=O)N1CCCCC1
IC50 [13]: 35.9 µM (active) | IC50 [15]: 19.5 µM (active) | IC50 [17]: 5.75 µM (active)

COc1ccc(C(=O)N(C)c2c(C)n(C)n(-c3ccccc3)c2=O)cc1OC
IC50 [4]: 18.1 µM (not active)

CCCC(=O)Nc1ccc(Cl)c(NC(=S)NC(=O)c2cc3ccccc3o2)c1
IC50 [4]: > 50 µM (not active)

CN(CC(=O)Nc1ccc(N2CCOCC2)cc1)CC(=O)Nc1ccc(N2CCOCC2)cc1
IC50 [4]: 0.655 µM (not active)

C#CCOc1c(Br)cc(/C=C2/C(=O)ON=C2C)cc1OCC
IC50 (Genome polyprotein): 84.7 µM (active)

COc1ccc(CCNCC(O)COc2c(C)cccc2C)cc1OC (stereo not given)
AC50 (Escherichia coli): > 150 µM (inactive)

CCOC(=O)CNC(=O)c1ccccc1
AC50 (Escherichia coli): 21 µM (active)

Cc1cccc(-c2noc(CN(C(=O)c3ccc4c(c3)OCO4)C(C)C)n2)c1
EC50 [12]: 8.31 µM (active)

COc1cccc(C2C3=C(O)CC(C)(C)CC3=NC(C)=C2C(=O)Nc2nc3ccccc3s2)c1OC (stereo not given)
IC50 [1]: > 100 µM (active)

COc1cc2c3c(c1)-c1c(sn(-c4cc(OC)ccc4OC)c1=S)C(C)(C)N3C(=O)C2=O
IC50 (Genome polyprotein): 61.9 µM (active) | EC50 [18]: 42.3 µM (active) | EC50 [19]: 51 µM (active)

CC(OC(=O)c1ccc(Cl)c([N+](=O)[O-])c1)C(=O)N1CCN(Cc2ccccc2)CC1 (stereo not given)
IC50 (Fatty acid synthase [2]): 3.36 µM (active) | IC50 (Fatty acid synthase [3]): 6.15 µM (active)

CCn1c(C)nc2cc(S(=O)(=O)C(F)(F)C(F)C(F)(F)F)ccc21 (stereo not given)
IC50 [4]: 3.91 µM (active)

CSc1ccccc1NC(=O)CN(C)CC(=O)c1[nH]c(C)c(C(C)=O)c1C
IC50 [13]: 18.9 µM (active) | IC50 [15]: 6.83 µM (active)

CCC(C)(C)n1nnnc1C(c1ccc(C)cc1)N1CCN(Cc2ccc3c(c2)OCO3)CC1 (stereo not given)
EC50 [12]: 6.68 µM (active)

CC(C)(C)C1CCC(OC(=O)C[N+]2(C)CCCC2)CC1 (stereo not given)
IC50 [13]: 3.36 µM (active) | IC50 [15]: 2.96 µM (active)

O=[N+]([O-])c1ccc([CH+][N-]NC(=S)N[N-][CH+]c2ccc([N+](=O)[O-])cc2)cc1
IC50 [17]: 4.17 µM (active)

Cn1nc(C(=O)Nc2ccc(-n3cnnn3)cc2)c2ccccc2c1=O
IC50 [17]: 25.7 µM (active)

COCCOc1ccc(C(F)(F)F)cc1NC(=O)Cc1ccc(S(=O)(=O)N2CCOCC2)s1
IC50 (Fatty acid synthase [2]): 8.23 µM (active) | IC50 (Fatty acid synthase [3]): 6.76 µM (active)

O=C1/C(=C/c2ccc(F)cc2)SC(=S)N1NS(=O)(=O)c1ccccc1
IC50 (Genome polyprotein): 36.7 µM (active)

C=CCOc1ccc(/C=N/O)cc1Cl
IC50 [1]: > 100 µM (active)

COc1ccc(/N=C/c2c(O)oc3ccccc3c2=O)cc1
IC50 [1]: > 100 µM (active)

CC/N=C1\S/C(=C\c2cn(C(C)=O)nc2-c2ccccc2)C(=O)N1CC
CC50 (Vero): 24.8 µM (active)

CCn1cc(C(=O)O)c(=O)c2cc(F)c(N3CCN(C)CC3)cc21 [PEFLOXACIN MESYLATE]
AC50 (Escherichia coli): 1.83 µM (active)
